Results on three molecules are retold here after patent US7098012B1, “DNA demethylase, therapeutic and diagnostic uses thereof” (McGill University, priority 1997, dated 2006).

“Also recorded” adds a separate entry of the source.

Experiment [1] deals with DNA dMTase (Homo sapiens, UniProt Q9UBB5). Description: Volatilization of radioactive methyl residues assay. To be noted: imidazole 1 μM to 10 mM; FIG. 16. The format is biochemical.
For experiment [2], the system named is DNA dMTase. Description: Demethylation of [mdC32pdG]n substrate (conversion of mdCMP to dCMP) with additives or pretreatment. Format: biochemical, human. To be noted: 500 μM, initial rate conditions, FIG. 2a. As for the experimental part: (A) To assay the conversion of methyl-dCMP (mdCMP) to dCMP we used a previously described method (Szyf et al., 1995). Briefly, α^32P labeled, fully methylated poly[mdC^32PdG]n substrate was prepared as follows. One hundred ng of a double-stranded fully methylated (mdCpdG) oligomer (Pharmacia) were denatured by boiling, which was followed by partial annealing at room temperature. The complementary strand was extended with Klenow fragment (Boehringer Mannheim) using methyl-5-dCTP (mdCTP, 0.1 mM) (Boehringer Mannheim) and […] (100 μCi, 3000 Ci/mmol), and the unincorporated nucleotides were removed by chromatography through a NAP-5 column (Pharmacia). The NAP-5 chromatography was repeated to exclude minor contamination with unincorporated nucleotides. As a control a non-methylated poly[dC^32pdG]n substrate was similarly prepared except that a nonmethylated dCpdG oligomer served as a template and dCTP was used in the extension reaction. The column fractions (30 μl), described in the experimental procedures were incubated with 1 ng of poly[mdC^32pdG]n substrate for 1 hour at 37° C. in a buffer L containing 25% glycerol (v/v) and 5 mM EDTA. […] The digestion products were loaded onto a thin layer chromatography plate (TLC) (Kodak, 13255 Cellulose), separated in a medium containing, 132 ml Isobutyric acid:40 ml water:4 ml ammonia solution, autoradiographed and the intensity of the different spots was determined using a phosphorimager (Fuji, BAS 2000). ^32P labeled substrates and tritium labeled substrates were phosphoimaged using BAS 2000 plate and BAS-TR2040 phosphorimager plate respectively. (B) The second method determined removal of methylated residues from methylated DNA by measuring disappearance of ^3H—CH3 or ^14C—CH3 from the reaction mixture. […] The number of methyl groups that were removed from the DNA by the different fractions was determined by subtracting the remaining counts in each of the fractions from the counts remaining in the control. […]

Chain of DNA dMTase (Homo sapiens, UniProt Q9UBB5) (Q9UBB5 whole entry): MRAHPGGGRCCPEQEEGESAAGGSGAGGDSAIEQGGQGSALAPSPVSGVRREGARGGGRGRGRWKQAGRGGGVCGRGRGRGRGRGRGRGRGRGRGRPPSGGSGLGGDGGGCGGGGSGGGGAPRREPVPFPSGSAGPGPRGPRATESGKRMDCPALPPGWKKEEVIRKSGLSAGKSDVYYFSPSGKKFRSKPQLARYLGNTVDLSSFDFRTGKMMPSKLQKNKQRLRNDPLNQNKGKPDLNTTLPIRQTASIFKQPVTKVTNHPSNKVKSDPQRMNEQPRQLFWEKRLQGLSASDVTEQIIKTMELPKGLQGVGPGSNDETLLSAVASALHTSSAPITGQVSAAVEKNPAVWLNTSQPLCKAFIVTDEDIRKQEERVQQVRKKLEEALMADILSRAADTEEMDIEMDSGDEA

With `c1c[nH]cn1` [imidazole], the “inhibition of DNA dMTase activity” value in experiment [1] is “dose dependent inhibition”.
As for `Nc1ccn([C@H]2CC[C@@H](COP(=O)(O)OP(=O)(O)OP(=O)(O)O)O2)c(=O)n1` [ddCTP], in experiment [2], the “inhibition of demethylation of the [mdC32pdG]n substrate” value is “insensitive; also recorded: does not inhibit”.
For `Cc1cn([C@H]2C[C@H](O)[C@@H](COP(=O)(O)OP(=O)(O)OP(=O)(O)O)O2)c(=O)nc1N` [methyl-dCTP, methyl-5-dCTP], the “inhibition of demethylation of the [mdC32pdG]n substrate” value in experiment [2] was “nor is it inhibited”; in experiment [2] (listed as methyl dCTP) it was “not affected”.
